From US10485236B2, “Triazole derivatives, intermediates thereof and their use as fungicides” (Bayer CropScience Aktiengesellschaft, priority 2015, dated 2019)

How the values were obtained:
Septoria tritici = assay: Example C: in vivo preventive test on Septoria tritici (leaf spot on wheat); conditions: Zymoseptoria tritici, 576 h; 500 ppm of active ingredient; wheat plants, preventive spray; evaluated 24 days after inoculation; read-out: efficacy
Description: Example C: In Vivo Preventive Test on Septoria tritici (Leaf Spot on Wheat) [table] The active ingredients are made soluble and homogenized in a mixture of Dimethyl sulfoxide/Acetone//Tween® 80 and then diluted in water to the desired concentration. The young plants of wheat are treated by spraying the active ingredient prepared as described above. Control plants are treated only with an aqueous solution of Acetone/Dimethyl sulfoxide/Tween® 80. After 24 hours, the plants are contaminated by spraying the leaves with an aqueous suspension of Septoria tritici spores. The contaminated wheat plants are incubated for 72 hours at 18° C. and at 100% relative humidity and then for 21 days at 20° C. and at 90% relative humidity. The test is evaluated 24 days after the inoculation. 0% means an efficacy which corresponds to that of the control plants while an efficacy of 100% means that no disease is observed.

Phakopsora pachyrhizi = assay: Example G: in vivo preventive test on Phakopsora test (soybeans); conditions: 168 h, 100 ppm of active ingredient, preventive spray, evaluated 7 days after inoculation, read-out: efficacy
Description: Example G: In Vivo Preventive Test on Phakopsora Test (Soybeans) [table] To produce a suitable preparation of active compound, 1 part by weight of active compound is mixed with the stated amounts of solvent and emulsifier, and the concentrate is diluted with water to the desired concentration. To test for preventive activity, young plants are sprayed with the preparation of active compound at the stated rate of application. After the spray coating has dried on, the plants are inoculated with an aqueous spore suspension of the causal agent of soybean rust (Phakopsora pachyrhizi) and stay for 24 h without light in an incubation cabinet at approximately 24° C. and a relative atmospheric humidity of 95%. The plants remain in the incubation cabinet at approximately 24° C. and a relative atmospheric humidity of approximately 80% and a day/night interval of 12 h. The test is evaluated 7 days after the inoculation. 0% means an efficacy which corresponds to that of the untreated control, while an efficacy of 100% means that no disease is observed.

Sphaerotheca fuliginea = assay: Example D: in vivo preventive test on Sphaerotheca fuliginea (powdery mildew on cucurbits); conditions: Podosphaera fuliginea, 360 h; 500 ppm of active ingredient; gherkin plants, preventive spray; evaluated 15 days after inoculation; read-out: efficacy
Description: Example D: In Vivo Preventive Test on Sphaerotheca fuliginea (Powdery Mildew on Cucurbits) [table] The active ingredients are made soluble and homogenized in a mixture of Dimethyl sulfoxide/Acetone//Tween® 80 and then diluted in water to the desired concentration. The young plants of gherkin are treated by spraying the active ingredient prepared as described above. Control plants are treated only with an aqueous solution of Acetone/Dimethyl sulfoxide/Tween® 80. After 24 hours, the plants are contaminated by spraying the leaves with an aqueous suspension of Sphaerotheca fuliginea spores. The contaminated gherkin plants are incubated for 72 hours at 18° C. and at 100% relative humidity and then for 12 days at 20° C. and at 70-80% relative humidity. The test is evaluated 15 days after the inoculation. 0% means an efficacy which corresponds to that of the control plants while an efficacy of 100% means that no disease is observed.

Puccinia triticina = assay: Example K: in vivo preventive Puccinia triticina test (wheat); conditions: 192 h, 500 ppm of active ingredient, preventive spray, evaluated 8 days after inoculation, read-out: efficacy
Description: Example K: In Vivo Preventive Puccinia Triticina Test (Wheat)
To produce a suitable preparation of active compound, 1 part by weight of active compound or active compound combination is mixed with the stated amounts of solvent and emulsifier, and the concentrate is diluted with water to the desired concentration.
To test for preventive activity, young plants are sprayed with the preparation of active compound or active compound combination at the stated rate of application.
After the spray coating has been dried, the plants are sprayed with a spore suspension of Puccinia triticina. The plants remain for 48 hours in an incubation cabinet at approximately 20° C. and a relative atmospheric humidity of approximately 100%.
The plants are placed in the greenhouse at a temperature of approximately 20° C. and a relative atmospheric humidity of approximately 80%.
The test is evaluated 8 days after the inoculation. 0% means an efficacy which corresponds to that of the untreated control, while an efficacy of 100% means that no disease is observed.

Puccinia recondita = assay: Example B: in vivo preventive test on Puccinia recondita (brown rust on wheat); conditions: 264 h, 500 ppm of active ingredient, wheat plants, preventive spray, evaluated 11 days after inoculation, read-out: efficacy
Description: (§1) Example B: In Vivo Preventive Test on Puccinia recondita (Brown Rust on Wheat) [table] The active ingredients are made soluble and homogenized in a mixture of Dimethyl sulfoxide/Acetone//Tween® 80 and then diluted in water to the desired concentration. The young plants of wheat are treated by spraying the active ingredient prepared as described above. Control plants are treated only with an aqueous solution of Acetone/Dimethyl sulfoxide/Tween® 80. After 24 hours, the plants are contaminated by spraying the leaves with an aqueous suspension of Puccinia recondita spores. The contaminated wheat plants are incubated for 24 hours at 20° C. and at 100% relative humidity and then for 10 days at 20° C. and at 70-80% relative humidity. The test is evaluated 11 days after the inoculation. 0% means an efficacy which corresponds to that of the control plants while an efficacy of 100% means that no disease is observed.

Alternaria solani = assay: Example F: in vivo preventive test on Alternaria test (tomatoes); conditions: 72 h, 100 ppm of active ingredient, preventive spray, evaluated 3 days after inoculation, read-out: efficacy
Description: Example F: In Vivo Preventive Test on Alternaria Test (Tomatoes) [table] To produce a suitable preparation of active compound, 1 part by weight of active compound is mixed with the stated amounts of solvent and emulsifier, and the concentrate is diluted with water to the desired concentration. To test for preventive activity, young plants are sprayed with the preparation of active compound at the stated rate of application. After the spray coating has dried on, the plants are inoculated with an aqueous spore suspension of Alternaria solani. The plants are then placed in an incubation cabinet at approximately 20° C. and a relative atmospheric humidity of 100%. The test is evaluated 3 days after the inoculation. 0% means an efficacy which corresponds to that of the untreated control while an efficacy of 100% means that no disease is observed.

Uromyces appendiculatus = assay: Example E: in vivo preventive test on Uromyces appendiculatus (bean rust); conditions: 264 h, 500 ppm of active ingredient, bean plants, preventive spray, evaluated 11 days after inoculation, read-out: efficacy
Description: as §1, with “E:” for “B:”, “Uromyces appendiculatus (Bean Rust)” for “Puccinia recondita (Brown Rust on Wheat)”, “bean” for “wheat”, “Uromyces appendiculatus” for “Puccinia recondita”

| SMILES | pest or weed control at 500 ppm (Septoria tritici) | pest or weed control at 100 ppm (Phakopsora pachyrhizi) | pest or weed control at 500 ppm (Sphaerotheca fuliginea) | pest or weed control at 500 ppm (Puccinia triticina) | pest or weed control at 500 ppm (Puccinia recondita) | pest or weed control at 100 ppm (Alternaria solani) | pest or weed control at 500 ppm (Uromyces appendiculatus) |
| --- | --- | --- | --- | --- | --- | --- | --- |
| C[C@@](O)(Cn1cncn1)c1cnc(Oc2ccc(Cl)cc2)cc1C(F)(F)F [I.45] | 90 to 100% | 90 to 100% | 90 to 100% | 90 to 100% | 90 to 100% | 90 to 100% | 90 to 100% |
| Cc1ccc(Oc2ccc(C(O)Cn3cncn3)c(Cl)n2)cc1Cl (centres unmarked) [I.16] | 80 to 89% | 90 to 100% | 90 to 100% | – | 80 to 89% | 90 to 100% | 90 to 100% |
| CC(O)(Cn1cncn1)c1ccc(Oc2ccc(S(F)(F)(F)(F)F)cc2)nc1Cl (centres unmarked) [I.35] | 90 to 100% | 70 to 79% | 90 to 100% | 90 to 100% | 90 to 100% | 90 to 100% | 90 to 100% |
| OC(Cn1cncn1)c1cnc(Oc2ccc(S(F)(F)(F)(F)F)cc2)cc1C(F)(F)F (centres unmarked) [I.36] | 80 to 89% | 90 to 100% | 90 to 100% | 90 to 100% | 90 to 100% | 90 to 100% | 90 to 100% |
| OC(Cn1cncn1)(c1ccc(Oc2ccc(Cl)cc2)nc1C(F)(F)F)C1CC1 (centres unmarked) [I.91, 1-[6-(4-chlorophenoxy)-2-(trifluoromethyl)-3-pyridyl]-1-cyclopropyl-2-(1,2,4-triazol-1-yl)ethanol] | 90 to 100% | 90 to 100% | 90 to 100% | 90 to 100% | 90 to 100% | – | 90 to 100% |
| OC(Cn1cncn1)c1cnc(Oc2ccc(C(F)(F)F)cc2)cc1C(F)(F)F (centres unmarked) [I.47] | 90 to 100% | 90 to 100% | 90 to 100% | 90 to 100% | 90 to 100% | 90 to 100% | 90 to 100% |
| CC(O)(Cn1cncn1)c1cnc(Oc2ccc(Cl)cc2)cc1C(F)(F)F (centres unmarked) [I.02, 2-[6-(4-chlorophenoxy)-4-(trifluoromethyl)-3-pyridyl]-1-(1,2,4-triazol-1-yl)propan-2-ol] | 80 to 89% | 90 to 100% | 90 to 100% | 90 to 100% | 90 to 100% | 90 to 100% | 90 to 100% |
| CC(O)(Cn1cncn1)c1cnc(Oc2ccccc2)cc1Cl (centres unmarked) [I.05] | 90 to 100% | 90 to 100% | 90 to 100% | 90 to 100% | 90 to 100% | 90 to 100% | 90 to 100% |
| O=C(Cn1cncn1)c1ccc(Oc2ccc(Cl)cc2)nc1C(F)(F)F [VII.01, 1-[6-(4-chlorophenoxy)-2-(trifluoromethyl)-3-pyridyl]-2-(1,2,4-triazol-1-yl)ethanone] | 80 to 89% | 80 to 89% | 90 to 100% | 90 to 100% | 90 to 100% | 80 to 89% | 90 to 100% |
| CC(O)(Cn1cncn1)c1ccc(Oc2ccc(C(F)F)cc2)nc1Cl (centres unmarked) [I.39] | 90 to 100% | 90 to 100% | 90 to 100% | 90 to 100% | 90 to 100% | 90 to 100% | 90 to 100% |
| OC(Cn1cncn1)c1ccc(Oc2ccc(Cl)cc2)nc1Cl (centres unmarked) [I.14] | 90 to 100% | 90 to 100% | 90 to 100% | 90 to 100% | 90 to 100% | 90 to 100% | 90 to 100% |
| CC(O)(Cn1cncn1)c1ccc(Oc2ccc(Cl)cc2)nc1C(F)(F)F (centres unmarked) [I.01, 2-[6-(4-chlorophenoxy)-2-(trifluoromethyl)-3-pyridyl]-1-(1,2,4-triazol-1-yl)propan-2-ol] | 90 to 100% | 90 to 100% | 90 to 100% | 90 to 100% | 90 to 100% | 90 to 100% | 90 to 100% |
| OC(Cn1cncn1)c1ccc(Oc2ccc(Cl)cc2)nc1C(F)(F)F (centres unmarked) [I.03, 1-[6-(4-chlorophenoxy)-2-(trifluoromethyl)-3-pyridyl]-2-(1,2,4-triazol-1-yl)ethanol] | 90 to 100% | 90 to 100% | 90 to 100% | 90 to 100% | 90 to 100% | 80 to 89% | 90 to 100% |
